In PMC261875, “Biochemical Characterization of DNA Damage Checkpoint Complexes: Clamp Loader and Clamp Complexes with Specificity for 5′ Recessed DNA” (PLoS Biology, 2003):

Legend:
[1] = system: T1, RSR (Rad17–Rfc2–Rfc3–Rfc4–Rfc5) complex; assay: bead pull-down of clamp-clamp loader-DNA ternary complex, Western blot; type: binding; conditions: 1 mM ATPγS, 7 mM MgCl2, pH 7.5, 30 °C; RHR clamp, human RPA, 5' recessed primer-template DNA; nonhydrolyzable ATP analog
T1 construct: untagged

[2] = system: T2, RFC (replication factor C); assay: as above; type: binding; conditions: 1 mM ATPγS, 7 mM MgCl2, pH 7.5, 30 °C; PCNA clamp, human RPA, 3' recessed primer-template DNA; nonhydrolyzable ATP analog
T2 construct: gene RFC1
T2 sequence (P35251 whole entry): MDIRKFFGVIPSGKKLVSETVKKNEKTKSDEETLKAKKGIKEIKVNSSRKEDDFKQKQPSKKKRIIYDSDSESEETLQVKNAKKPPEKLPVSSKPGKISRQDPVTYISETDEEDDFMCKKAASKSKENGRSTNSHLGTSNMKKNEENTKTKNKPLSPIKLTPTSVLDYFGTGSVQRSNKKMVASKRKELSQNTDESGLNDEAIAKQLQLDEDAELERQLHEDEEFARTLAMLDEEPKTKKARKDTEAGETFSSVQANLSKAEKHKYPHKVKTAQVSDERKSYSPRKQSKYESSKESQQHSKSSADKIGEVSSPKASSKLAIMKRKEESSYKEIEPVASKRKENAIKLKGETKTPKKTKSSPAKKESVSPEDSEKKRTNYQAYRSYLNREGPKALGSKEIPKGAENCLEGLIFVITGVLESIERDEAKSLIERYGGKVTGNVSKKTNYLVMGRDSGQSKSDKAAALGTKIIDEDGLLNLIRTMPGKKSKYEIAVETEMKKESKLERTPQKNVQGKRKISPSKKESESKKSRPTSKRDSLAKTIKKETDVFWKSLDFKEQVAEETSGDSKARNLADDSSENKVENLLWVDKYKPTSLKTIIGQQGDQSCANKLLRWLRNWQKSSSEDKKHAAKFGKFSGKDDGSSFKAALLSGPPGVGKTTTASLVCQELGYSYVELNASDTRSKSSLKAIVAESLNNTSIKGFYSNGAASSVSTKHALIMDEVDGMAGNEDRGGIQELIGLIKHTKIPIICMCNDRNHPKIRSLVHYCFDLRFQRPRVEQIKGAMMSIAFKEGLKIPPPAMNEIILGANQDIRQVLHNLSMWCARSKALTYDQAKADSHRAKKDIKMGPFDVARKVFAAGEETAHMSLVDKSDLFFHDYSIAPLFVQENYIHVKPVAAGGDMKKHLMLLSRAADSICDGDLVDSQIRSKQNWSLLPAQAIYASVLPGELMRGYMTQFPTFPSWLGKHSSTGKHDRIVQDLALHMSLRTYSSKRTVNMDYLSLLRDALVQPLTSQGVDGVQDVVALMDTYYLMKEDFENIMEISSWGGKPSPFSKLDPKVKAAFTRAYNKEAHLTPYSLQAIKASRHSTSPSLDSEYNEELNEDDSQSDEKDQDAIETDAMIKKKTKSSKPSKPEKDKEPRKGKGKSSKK
T2 sequence (P35250 whole entry, further chain): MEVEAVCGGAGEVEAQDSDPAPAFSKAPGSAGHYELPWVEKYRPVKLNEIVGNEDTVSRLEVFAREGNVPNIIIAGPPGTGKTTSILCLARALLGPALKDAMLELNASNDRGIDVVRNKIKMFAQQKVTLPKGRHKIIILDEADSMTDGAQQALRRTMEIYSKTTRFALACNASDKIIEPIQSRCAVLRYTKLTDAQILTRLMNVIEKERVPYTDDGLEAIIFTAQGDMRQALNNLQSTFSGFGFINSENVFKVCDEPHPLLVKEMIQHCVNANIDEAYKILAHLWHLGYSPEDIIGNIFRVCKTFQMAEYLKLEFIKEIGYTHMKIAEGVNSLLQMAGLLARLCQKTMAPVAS
T2 sequence (P40938 whole entry, further chain): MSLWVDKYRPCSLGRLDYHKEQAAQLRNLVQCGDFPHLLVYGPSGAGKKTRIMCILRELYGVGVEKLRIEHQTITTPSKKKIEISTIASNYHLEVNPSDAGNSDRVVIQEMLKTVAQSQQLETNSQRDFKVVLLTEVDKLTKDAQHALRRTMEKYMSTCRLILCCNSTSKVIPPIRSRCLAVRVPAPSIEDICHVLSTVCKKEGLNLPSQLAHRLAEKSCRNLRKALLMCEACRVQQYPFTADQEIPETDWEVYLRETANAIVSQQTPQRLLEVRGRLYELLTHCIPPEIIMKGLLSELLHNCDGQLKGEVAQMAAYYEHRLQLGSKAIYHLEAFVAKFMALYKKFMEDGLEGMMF
T2 sequence (P35249 whole entry, further chain): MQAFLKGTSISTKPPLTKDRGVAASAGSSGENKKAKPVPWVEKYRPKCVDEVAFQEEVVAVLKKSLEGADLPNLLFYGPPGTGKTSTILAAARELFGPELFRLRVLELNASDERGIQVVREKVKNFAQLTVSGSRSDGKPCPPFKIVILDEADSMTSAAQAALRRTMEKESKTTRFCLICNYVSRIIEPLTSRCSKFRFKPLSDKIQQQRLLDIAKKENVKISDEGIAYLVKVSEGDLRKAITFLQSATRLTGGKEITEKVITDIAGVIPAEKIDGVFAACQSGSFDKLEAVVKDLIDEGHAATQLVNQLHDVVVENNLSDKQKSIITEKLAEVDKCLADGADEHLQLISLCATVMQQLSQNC
T2 sequence (P40937 whole entry, further chain): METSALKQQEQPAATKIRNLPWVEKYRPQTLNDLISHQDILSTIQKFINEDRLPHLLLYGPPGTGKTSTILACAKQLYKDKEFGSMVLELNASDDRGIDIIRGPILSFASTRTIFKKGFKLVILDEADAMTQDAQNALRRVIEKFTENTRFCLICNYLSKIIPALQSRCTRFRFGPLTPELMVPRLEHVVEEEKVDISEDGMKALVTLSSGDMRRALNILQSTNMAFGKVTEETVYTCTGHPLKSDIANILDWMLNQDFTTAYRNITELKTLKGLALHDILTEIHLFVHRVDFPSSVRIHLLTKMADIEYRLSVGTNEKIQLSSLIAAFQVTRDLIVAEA

T1 sequence (O75943 whole entry): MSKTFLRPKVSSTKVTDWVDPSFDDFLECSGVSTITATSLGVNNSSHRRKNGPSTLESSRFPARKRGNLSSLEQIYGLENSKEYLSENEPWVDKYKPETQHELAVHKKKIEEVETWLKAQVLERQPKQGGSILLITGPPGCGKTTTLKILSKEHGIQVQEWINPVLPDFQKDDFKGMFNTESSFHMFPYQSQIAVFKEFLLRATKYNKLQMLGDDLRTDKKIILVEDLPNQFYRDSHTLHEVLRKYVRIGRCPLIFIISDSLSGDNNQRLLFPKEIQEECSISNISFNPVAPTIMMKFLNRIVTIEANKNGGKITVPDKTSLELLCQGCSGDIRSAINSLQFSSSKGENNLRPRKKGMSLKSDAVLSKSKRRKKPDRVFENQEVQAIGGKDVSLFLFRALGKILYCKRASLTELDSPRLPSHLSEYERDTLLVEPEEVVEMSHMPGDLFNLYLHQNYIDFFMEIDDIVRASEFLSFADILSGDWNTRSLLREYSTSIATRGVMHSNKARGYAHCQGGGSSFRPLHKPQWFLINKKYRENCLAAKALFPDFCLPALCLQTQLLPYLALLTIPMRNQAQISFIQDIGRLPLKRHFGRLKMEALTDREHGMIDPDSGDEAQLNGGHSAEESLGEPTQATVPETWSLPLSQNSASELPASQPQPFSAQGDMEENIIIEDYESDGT
T1 sequence (P35250 whole entry, further chain): as the sequence (P35250 whole entry, further chain) above
T1 sequence (P40938 whole entry, further chain): as the sequence (P40938 whole entry, further chain) above
T1 sequence (P35249 whole entry, further chain): as the sequence (P35249 whole entry, further chain) above
T1 sequence (P40937 whole entry, further chain): as the sequence (P40937 whole entry, further chain) above

Nc1ncnc2c1ncn2[C@@H]1O[C@H](COP(=O)(O)OP(=O)(O)OP(O)(O)=S)[C@@H](O)[C@H]1O [ATPγS, adenosine 5′-O-3′-thiotriphosphate]
bead pull-down of clamp-clamp loader-DNA ternary complex, Western blot [1]: in the presence of ATPγS ternary complex formation, but not clamp loading | bead pull-down of clamp-clamp loader-DNA ternary complex, Western blot [2]: ternary complex formation on both substrates in the presence of ATPγS was observed
